Patent US9944618B2, “Inhibiting neurotransmitter reuptake” (Mayo Foundation for Medical Education and Research, priority 2013, dated 2018)
Read-outs that look alike come from different tables or passages of the source.

Experiments:
CYP2D6 = CYP2D6 (Homo sapiens (Human), UniProt P10635); assay: Cytochrome P450 inhibition assay, recombinant CYP2D6 (MAMC substrate); assay type: in vitro ADME; conditions: recombinant enzyme
Experimental: (§1) Recombinant enzymes, 3A4 and 2D6, generated using the ABL yeast expression system were used. […] The assay mixture also included K2HPO4 (pH 7.4; conc. 0.1 M) and NADPH (conc. 1 mM). The incubation time was 30 minutes, and the reference inhibitor was A-naphthoflavone. For CYP2D6, the enzyme amount was 2 pmol per well, and the substrate (7-methoxy-4-(aminomethyl)-coumarin; MAMC) was used at 20 μM. The assay mixture also included K2HPO4 (pH 7.4; conc. 0.1 M) and NADPH (conc. 0.06 mM). The incubation time was 35 minutes, and the reference inhibitor was quinidine.
(§2) Briefly, 0.6 μL of serially diluted compound was added to 75 μL water. 10 μL of diluted compound in water was then added to each assay plate. 20 μL of a K2HPO4, enzyme, and substrate mixture was added. After 10 minutes of room temperature pre-incubation, 10 μL of NADPH was added, and the plates were placed at 37° C. for 30 or 35 minutes depending on the enzyme being tested. After the incubation was complete, 20 μL of 0.1% Tris/ACN was added to the plate. The plate was read on a FluorStar fluorescence plate reader.

[1] = molecular target: human serotonin transporter (Homo sapiens (Human), UniProt P31645); assay: Human SERT (serotonin transporter) uptake assay; assay type: cell-based; conditions: read-out: hSERT Ki
Procedure, shortened: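 HEK293F cells transfected with human SERT, about 60,000 per well, settled for ≥3 h at 37° C before compound addition. Uptake was followed with a fluorescent transporter dye in HBSS with 0.02 M HEPES. Background came from 10 μM fluoxetine, nomifensine was the control, n=3.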

[2] = molecular target: human norepinephrine transporter (Homo sapiens (Human), UniProt P23975); assay: Human NET (norepinephrine transporter) uptake assay; assay type: cell-based; conditions: read-out: hNET Ki
Procedure, shortened: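 HEK293F cells transfected with human NET were thawed, plated at about 60,000 cells/well and held at 37 °C for at least 3 h. Compounds came from 10 mM DMSO stocks, with nomifensine as control, in 1×HBSS/0.02 M HEPES. Uptake was followed with a neurotransmitter transporter dye, dosed as % of vendor reconstitution, in triplicate.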

CYP3A4 = CYP3A4 (Homo sapiens (Human), UniProt P08684); assay: Cytochrome P450 inhibition assay, recombinant CYP3A4 (BFC substrate); assay type: in vitro ADME; conditions: recombinant enzyme
Experimental: as §1, §2

[3] = pKa of basic centres (Table 1); assay type: physicochemical
hERG = hERG (Homo sapiens (Human), UniProt Q12809); assay: Human ERG (hERG) assay, hERG currents in hERG-expressing CHO cells; assay type: cell-based; conditions: hERG-expressing CHO cells
[4] = molecular target: human dopamine transporter (Homo sapiens (Human), UniProt Q01959); assay: Human DAT (dopamine transporter) uptake assay; assay type: cell-based; conditions: read-out: hDAT Ki
Procedure, shortened: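 Uptake inhibition was measured in HEK293F cells transfected with human DAT, plated at ~60,000 cells/well and settled ≥3 h at 37 °C. Compounds came from 10 mM DMSO stocks. Read-out was uptake of a fluorescent neurotransmitter transporter dye in HBSS with 0.02 M HEPES, with dye level given as % of vendor reconstitution; n=3.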

[5] = first base, e.g., an aliphatic primary, secondary, or tertiary amine, read-out: pKa (Base 1)
[6] = second base in the same molecule (if present), read-out: pKa (Base 2)
[7] = first base, e.g., an aliphatic primary, secondary, or tertiary amine

Sequence of human dopamine transporter (Q01959 whole entry): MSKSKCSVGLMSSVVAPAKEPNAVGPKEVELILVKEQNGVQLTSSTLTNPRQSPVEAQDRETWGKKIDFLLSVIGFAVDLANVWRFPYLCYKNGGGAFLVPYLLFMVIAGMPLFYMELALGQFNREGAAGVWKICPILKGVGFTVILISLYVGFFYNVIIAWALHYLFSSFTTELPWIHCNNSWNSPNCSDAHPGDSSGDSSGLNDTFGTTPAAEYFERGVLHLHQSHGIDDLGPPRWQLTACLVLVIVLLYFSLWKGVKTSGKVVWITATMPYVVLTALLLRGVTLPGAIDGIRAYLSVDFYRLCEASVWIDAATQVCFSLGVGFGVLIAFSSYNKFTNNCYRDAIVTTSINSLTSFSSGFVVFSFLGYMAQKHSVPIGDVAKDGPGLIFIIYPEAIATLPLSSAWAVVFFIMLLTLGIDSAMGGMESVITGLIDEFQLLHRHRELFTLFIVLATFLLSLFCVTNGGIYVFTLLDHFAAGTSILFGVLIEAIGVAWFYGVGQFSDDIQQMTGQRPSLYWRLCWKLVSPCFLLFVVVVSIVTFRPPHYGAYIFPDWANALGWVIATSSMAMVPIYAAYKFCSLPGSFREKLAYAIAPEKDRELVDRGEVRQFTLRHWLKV
Sequence of hERG (Q12809 whole entry): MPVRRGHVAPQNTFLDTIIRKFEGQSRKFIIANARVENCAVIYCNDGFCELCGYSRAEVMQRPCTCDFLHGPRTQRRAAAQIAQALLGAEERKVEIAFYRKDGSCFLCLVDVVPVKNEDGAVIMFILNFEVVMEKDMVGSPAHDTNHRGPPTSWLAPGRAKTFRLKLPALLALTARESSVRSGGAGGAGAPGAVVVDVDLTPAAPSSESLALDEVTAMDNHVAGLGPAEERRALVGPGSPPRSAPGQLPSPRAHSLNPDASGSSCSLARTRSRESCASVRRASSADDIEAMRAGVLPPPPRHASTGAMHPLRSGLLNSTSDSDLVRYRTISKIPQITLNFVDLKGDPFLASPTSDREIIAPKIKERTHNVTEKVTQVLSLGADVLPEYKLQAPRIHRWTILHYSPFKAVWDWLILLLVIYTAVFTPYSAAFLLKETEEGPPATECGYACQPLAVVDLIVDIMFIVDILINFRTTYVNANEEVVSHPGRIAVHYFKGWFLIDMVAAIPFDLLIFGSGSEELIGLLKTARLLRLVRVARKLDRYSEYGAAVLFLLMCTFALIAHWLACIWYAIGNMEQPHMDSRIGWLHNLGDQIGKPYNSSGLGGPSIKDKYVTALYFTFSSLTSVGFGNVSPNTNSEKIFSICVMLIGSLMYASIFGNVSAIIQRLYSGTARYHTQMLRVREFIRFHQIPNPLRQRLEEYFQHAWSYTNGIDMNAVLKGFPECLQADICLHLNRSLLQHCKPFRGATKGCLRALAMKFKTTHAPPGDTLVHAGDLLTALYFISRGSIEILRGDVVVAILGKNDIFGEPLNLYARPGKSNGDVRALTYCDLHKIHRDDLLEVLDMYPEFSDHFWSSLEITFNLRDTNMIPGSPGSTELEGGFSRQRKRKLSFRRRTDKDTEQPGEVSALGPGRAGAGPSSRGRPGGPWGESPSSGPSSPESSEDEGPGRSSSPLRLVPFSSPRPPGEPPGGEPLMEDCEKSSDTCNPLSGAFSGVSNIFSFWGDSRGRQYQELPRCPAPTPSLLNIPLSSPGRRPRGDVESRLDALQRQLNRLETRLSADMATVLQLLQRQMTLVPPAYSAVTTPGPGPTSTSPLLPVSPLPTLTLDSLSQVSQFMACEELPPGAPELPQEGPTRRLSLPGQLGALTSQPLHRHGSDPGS
Sequence of CYP2D6 (P10635 whole entry): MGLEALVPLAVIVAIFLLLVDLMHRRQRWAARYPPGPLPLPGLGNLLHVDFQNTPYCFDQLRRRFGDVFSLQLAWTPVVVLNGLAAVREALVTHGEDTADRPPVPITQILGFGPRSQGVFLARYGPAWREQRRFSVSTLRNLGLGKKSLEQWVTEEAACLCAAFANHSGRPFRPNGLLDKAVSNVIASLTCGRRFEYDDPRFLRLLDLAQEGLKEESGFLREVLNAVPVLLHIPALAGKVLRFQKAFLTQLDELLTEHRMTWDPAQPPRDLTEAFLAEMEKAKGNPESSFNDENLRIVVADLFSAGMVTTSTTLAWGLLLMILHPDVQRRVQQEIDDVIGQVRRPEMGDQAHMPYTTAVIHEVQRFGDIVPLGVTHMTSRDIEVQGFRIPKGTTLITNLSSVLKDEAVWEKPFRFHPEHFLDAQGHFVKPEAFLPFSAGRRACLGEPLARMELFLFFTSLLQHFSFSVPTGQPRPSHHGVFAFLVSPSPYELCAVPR
Sequence of human norepinephrine transporter (P23975 whole entry): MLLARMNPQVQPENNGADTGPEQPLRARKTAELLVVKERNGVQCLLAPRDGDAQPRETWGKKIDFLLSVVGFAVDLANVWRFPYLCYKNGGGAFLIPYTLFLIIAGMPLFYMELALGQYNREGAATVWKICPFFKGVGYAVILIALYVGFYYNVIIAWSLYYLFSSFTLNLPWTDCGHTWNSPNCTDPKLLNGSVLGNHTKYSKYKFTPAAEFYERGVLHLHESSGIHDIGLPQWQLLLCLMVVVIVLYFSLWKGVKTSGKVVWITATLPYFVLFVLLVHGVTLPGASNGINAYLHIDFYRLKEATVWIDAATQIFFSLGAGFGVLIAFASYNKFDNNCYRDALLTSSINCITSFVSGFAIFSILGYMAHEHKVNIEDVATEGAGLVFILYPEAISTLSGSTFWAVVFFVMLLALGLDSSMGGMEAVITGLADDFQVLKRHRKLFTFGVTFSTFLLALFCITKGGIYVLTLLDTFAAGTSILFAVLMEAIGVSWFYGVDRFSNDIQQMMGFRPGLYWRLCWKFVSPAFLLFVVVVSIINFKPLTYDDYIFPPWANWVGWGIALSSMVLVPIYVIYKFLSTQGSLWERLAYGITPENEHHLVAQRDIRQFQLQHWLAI
Sequence of CYP3A4 (P08684 whole entry): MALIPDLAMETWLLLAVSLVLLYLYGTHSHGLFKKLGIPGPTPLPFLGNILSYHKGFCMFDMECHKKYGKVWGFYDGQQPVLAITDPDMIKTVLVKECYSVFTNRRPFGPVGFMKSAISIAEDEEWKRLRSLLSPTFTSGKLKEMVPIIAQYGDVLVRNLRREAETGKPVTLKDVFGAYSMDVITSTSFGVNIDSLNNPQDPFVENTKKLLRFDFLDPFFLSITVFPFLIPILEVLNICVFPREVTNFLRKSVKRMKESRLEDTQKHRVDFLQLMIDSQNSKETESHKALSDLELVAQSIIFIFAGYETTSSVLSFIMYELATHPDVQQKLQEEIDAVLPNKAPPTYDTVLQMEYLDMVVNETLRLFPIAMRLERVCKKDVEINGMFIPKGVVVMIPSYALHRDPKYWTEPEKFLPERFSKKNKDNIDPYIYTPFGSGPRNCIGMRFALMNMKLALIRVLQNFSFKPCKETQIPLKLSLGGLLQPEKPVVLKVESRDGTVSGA
Sequence of human serotonin transporter (P31645 whole entry): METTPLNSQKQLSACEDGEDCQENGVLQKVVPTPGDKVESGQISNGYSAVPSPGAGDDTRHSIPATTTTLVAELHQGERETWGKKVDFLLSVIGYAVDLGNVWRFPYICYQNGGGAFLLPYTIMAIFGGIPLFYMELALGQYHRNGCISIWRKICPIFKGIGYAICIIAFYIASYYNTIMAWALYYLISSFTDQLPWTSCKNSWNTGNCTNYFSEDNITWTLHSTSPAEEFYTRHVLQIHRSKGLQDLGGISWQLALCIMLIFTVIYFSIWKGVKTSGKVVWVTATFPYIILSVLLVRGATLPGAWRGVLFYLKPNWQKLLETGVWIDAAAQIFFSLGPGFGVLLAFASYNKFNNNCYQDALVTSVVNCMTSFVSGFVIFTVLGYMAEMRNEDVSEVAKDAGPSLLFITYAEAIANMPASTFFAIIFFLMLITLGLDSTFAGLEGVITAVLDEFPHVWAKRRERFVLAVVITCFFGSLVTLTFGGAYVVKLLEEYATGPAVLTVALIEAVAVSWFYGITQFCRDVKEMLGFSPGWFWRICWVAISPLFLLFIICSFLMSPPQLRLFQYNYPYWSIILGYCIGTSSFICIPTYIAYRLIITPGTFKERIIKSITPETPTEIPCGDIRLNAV

IC50 (CYP2D6) [nM] | Ki [1] [nM] | Ki [2] [nM] | IC50 (CYP3A4) [µM] | pKa [3, 5] | pKa [3, 6] | Ki [4] [nM] | Compound | IC50 (hERG) [µM] | pKa (Base 1) [3, 7]
810 | 9.3 | 28 | 20 | 9.6 | 4.5 | 216 | CNC[C@H](c1ccc2ccccc2c1)[C@H](O)c1cncc(OC)c1 [Compound 92] | 33 | 
3000 | 367 | 32.8 | 18 | 9.4 |  | 52.6 | CNC[C@H](c1ccc(Cl)c(Cl)c1)[C@@H](O)c1cccc(NC(C)=O)c1 [Compound 94] | 33 | 
410 | 36.9 | 33.5 | 11 | 8 |  | 30.7 | NC[C@H](c1ccc2ccccc2c1)[C@@H](O)c1ccncc1Cl [Compound 95] | 33 | 
1100 | 9.9 | 36.8 | 20 | 9.7 |  | 158 | CNC[C@@H](c1ccc2ccccc2c1)[C@H](O)c1ccccc1F [Compound 96] | 33 | 
180 | 78.4 | 38.2 | 15 | 9.4 |  | 22.6 | CNC[C@H](c1ccc(Cl)c(Cl)c1)[C@@H](O)c1ccccc1SC [Compound 97] | 8 | 
850 | 167 | 38.8 | 20 | 9.4 |  | 216 | CNC[C@@H](c1ccc(Cl)c(Cl)c1)[C@H](O)c1cccc(NC(C)=O)c1 [Compound 98] | 33 | 
3600 | 43.2 | 41 | ≥ 20 | 9.6 | 4.1 | 287 | CNC[C@@H](c1ccc2ccccc2c1)[C@H](O)c1ccccn1 [Compound 99] | 33 | 
64 | 361 | 43.8 | 8.2 | 9.4 |  | 27.4 | CNC[C@H](c1ccc(Cl)c(Cl)c1)[C@@H](O)c1ccccc1-c1cccs1 [Compound 100] | 21 | 
3900 | 36.6 | 252 | 20 | 8 |  | 139 | NC[C@@H](c1ccc2ccccc2c1)C(O)c1ccncc1Cl (some centres unmarked) [Compound 118] | 24 | 
220 | 7.8 | 6 | 9.9 | 10.1 |  | 56.8 | CNCC(Cc1ccccc1C)c1ccc2ccccc2c1 (centres unmarked) [Compound 134] | 6.2 | 
620 | 6.4 | 5 | 13 | 10 |  | 88.7 | CNCC(Cc1ccc(C)s1)c1ccc2ccccc2c1 (centres unmarked) [Compound 139] | 3.1 | 
160 | 7.9 | 6.6 | 7.6 | 9.7 |  | 106 | CNC[C@H](c1ccc2ccccc2c1)[C@H](O)c1ccc2c(c1)OCCO2 [Compound 143] | 15 | 
92 | 10.1 | 9.3 | 1.3 | 9.5 |  | 144 | CNC[C@H](c1ccc2ccccc2c1)[C@H](Cl)c1ccccc1 [Compound 146] | 15 | 
290 | 38.4 | 37.1 | 6.9 |  |  | 40.3 | CNC[C@@H](c1ccc(Cl)c(Cl)c1)[C@@H](O)c1cccc(SC)c1 [Compound 154] | 2.2 | 9.4
170 | 22.4 | 17.2 | 9.5 | 9.4 |  | 48.5 | CNC[C@H](c1ccc(Cl)c(Cl)c1)[C@H](O)c1ccccc1SC [Compound 156] | 4.1 | 
98 | 38.6 | 6.3 | 3.8 | 9.4 |  | 55.4 | CCc1ccccc1[C@@H](O)[C@H](CNC)c1ccc(Cl)c(Cl)c1 [Compound 158] | 4.4 | 
490 | 9.2 | 9.1 | 3.5 | 9.4 |  | 83.5 | CNC[C@H](c1ccc(Cl)c(Cl)c1)[C@H](O)c1ccccc1OC [Compound 160] | 8 | 
250 | 78.1 | 41.6 | 5.3 | 9.4 |  | 113 | CNC[C@H](c1ccc(Cl)c(Cl)c1)[C@H](O)c1ccccc1I [Compound 164] | 4.1 | 
81 | 341 | 38.6 | 2.9 | 9.4 |  | 118 | CNC[C@H](c1ccc(Cl)c(Cl)c1)[C@@H](O)c1cccc(I)c1 [Compound 165] | 3.8 | 
400 | 18.8 | 10.8 | 20 | 9.2 |  | 132 | CNC[C@H](c1ccc(Cl)c(Cl)c1)[C@H](O)c1cccc(OC)n1 [Compound 167] | 12 | 
970 | 1260 | 625 | 0.2 | 9.4 |  | 102 | CNC[C@@H](c1ccc(Cl)c(Cl)c1)[C@@H](OC)c1cccc(NS(=O)(=O)C(F)(F)F)c1 [Compound 172] | 4.7 | 

Compound | IC50 (CYP2D6) [nM] | Ki [1] [nM] | Ki [2] [nM] | IC50 (CYP3A4) [µM] | pKa [3, 5] | pKa [3, 6] | Ki [4] [nM] | IC50 (hERG) [µM] | pKa (Base 1) [3, 7]
CNC[C@@H](c1ccc(Br)c(Cl)c1)[C@@H](O)c1ccccc1 [Compound 110] | 1900 | 677 | 142 | 17 | 9.4 |  | 24 | 6.8 | 
CNC[C@H](Cc1ccccc1O)c1ccc2ccccc2c1 [Compound 140] | 860 | 28.3 | 25.9 | 20 | 10 |  | 91.6 | 6.1 | 
CNC[C@@H](c1ccc(Cl)c(Cl)c1)[C@@H](O)c1ccsc1 [Compound 153] | 1400 | 7.5 | 3.9 | 20 |  |  | 33.8 | 1.6 | 9.5
